Measured values taken from patent US12622910B2, “Inhibitors of Bruton's tyrosine kinase and methods of their use” (Janssen Pharmaceutica NV, priority 2021, dated 2026).

System: hind paw inflammation
Assay: Rat collagen-induced arthritis
Assay type: in vivo, female Wistar rat
From the text: In vivo activity in collagen-induced arthritis—A rat CIA model in female Wistar rats was used to define the impact of the compound of Formula (III) on chronic inflammation and derive PK-PD correlations (FIG. 16). YiSaipu™ (recombinant human tumor necrosis factor-α receptor (type II): IgGI Fc (rhTNFR:Fc) fusion protein; biogeneric version of Etanercept™) was used as a comparator. […] The doses required to achieve meaningful efficacy correlated with a BTK target occupancy threshold of >75% over 24 hours based on the preceding target engagement studies.
Rat collagen-induced arthritis—An emulsion was prepared on ice from equal volumes of type II collagen (CII; Chondrex) (2 mg/mL in 100 mM acetic acid (Sinopharm Chemical Reagent Co. Ltd)) and Incomplete Freund's Adjuvant (IFA) (Sigma-Aldrich) by high speed homogenization (28,000 rpm) for 3 min (FLUKO Equipment Shanghai Co. Ltd). Eighty-two rats were used in the study. Before immunization, 6 rats were randomly selected as a naïve group. The other 76 rats were anesthetized with inhalational isoflurane, and injected intradermally at the base of the tail with 0.2 mL of the emulsion (1 mg/mL CII/IFA), 2 to 3 cm from the body on day 0 and day 7. On day 10, the 56 rats with the most developed arthritis based on paw volume measurements out of the 76 rats that were immunized were divided into 7 groups (n=8) with a stratified random block design according to average hind paw volume of each rat. Each group with similar starting paw inflammation was administered with vehicle or different doses of the compound of Formula (III) (0.3, 1, 2, 3, 10 mg/kg, PO, QD, days 10-17) or YiSaiPu (biosimilar etarnacept) (15 mg/kg, IP, QOD, days 10-16).
Hind paws volume and body weight were monitored daily for 7 consecutive days (days 10-16) after initiation of test article dosing. Left and right paw volumes in each rat were measured by a Plethysmometer (Catalog No. 7140, Ugo Basile. Italy). Blood (about 300 μL) in the groups treated with the compound of Formula (III) was collected into heparinized tubes via retro-orbital bleeding under isoflurane anesthesia on day 17-18. For groups treated with the compound of Formula (III), the composite collection time points were 0, 0.5, 1, 2, 4, 8, 12 and 24 hrs after last administration of the compound of Formula (III). After collection, blood samples were centrifuged (5,000 rpm for 10 min), plasma collected, and the concentrations of the compound of Formula (III) were determined using liquid chromatography mass spectrophotometry.

For `C=CC(=O)N[C@H]1CCC[C@H]1NC(=O)c1sc2nccc3c2c1NC(=O)N3c1cnc(CC(C)C)cc1C` (atropisomer, axis not shown) [compound of Formula (III), N-((1R,2S)-2-Acrylamidocyclopentyl)-5-(S)-(6-isobutyl-4-methylpyridin-3-yl)-4-oxo-4,5-dihydro-3H-1-thia-3,5,8-triazaacenaphthylene-2-carboxamide], the “effect on hind paw inflammation” value (0.3, 1, 2, 3, 10 mg/kg/day PO QD) was “attenuated hind paw inflammation in a dose-dependent manner” and the “dose with effect on inflammation equivalent to anti-TNFα comparator” value (PO QD) was no less than 2 mg/kg/day.
